# According to US4072759A, “Novel benzylalcohol derivatives as antidiabetics and cardiotonics” (Tanabe Seiyaku Co., Ltd., priority 1976, dated 1978):
# Columns and labels:
# [1] = 50 % lethal dose by intravenous injection to mice; settings: mouse, in vivo
# Description: Further, the toxicity of the benzylalcohol derivative (I) of the present invention is remarkably low.
# adrenergic β1-receptor [2] = settings: cited from earlier work
# adrenergic β1-receptor [3] = assay: increase of cardiac contractile force after injection into femoral vein of dogs; type: in vivo; settings: injected into femoral vein, 10 μg/kg
# adrenergic β1-receptor [4] = assay: cardiac contractile activity (general statement)
# [5] = decrease of blood sugar in mice, oral administration prior to subcutaneous injection of glucose; type: in vivo
# Description: For example, when α-(3,4-dimethoxyphenethylaminomethyl)-2-hydroxybenzylalcohol is administered orally to mice at a dose of 10 mg/kg prior to subcutaneous injection of glucose (1 g/kg), said 2-hydroxybenzylalcohol derivative of the invention decreases the blood sugar level by about 30 %. On the other hand, when examined under the same conditions as above, 100 mg/kg of Phenformin (Chemical name: 1-phenethylbiguanide) are required to induce 13 % decrease in said blood sugar.
smiles,measurement,setting,value
"COc1ccc(CCNCC(O)c2ccc(O)cc2)cc1OC (stereo not drawn) [α-(3,4-dimethoxyphenethylaminomethyl)-4-hydroxybenzylalcohol]",LD50,[1],~198 mg/kg
"COc1cc(CCNCC(O)c2ccc(O)c(O)c2)cc(OC)c1OC (stereo not drawn) [α-(3,4,5-trimethoxyphenethylaminomethyl)-3,4-dihydroxybenzylalcohol]",activation of adrenergic β1-receptor,adrenergic β1-receptor [2],selective activation of adrenergic β1 -receptor
"COc1ccc(CCNCC(O)c2cccc(O)c2)cc1OC (stereo not drawn) [α-(3,4-dimethoxyphenethylaminomethyl)-3-hydroxybenzylalcohol]",increase the cardiac contractile force,adrenergic β1-receptor [3],55%
"COc1ccc(CCNCC(O)c2ccccc2O)cc1OC (stereo not drawn) [α-(3,4-dimethoxyphenethylaminomethyl)-2-hydroxybenzylalcohol]",cardiac contractile activity,adrenergic β1-receptor [4],no substantial cardiac contractile activity
same,decreases the blood sugar level,"[5]; mice, oral, 10 mg/kg, prior to subcutaneous glucose (1 g/kg)",about 30%
same,decrease of blood sugar (in words),"[5]; mouse, in vivo",remarkable decrease of blood sugar
"N=C(N)NC(=N)NCCc1ccccc1 [Phenformin, 1-phenethylbiguanide, reference compound]",decrease in blood sugar,"[5]; mice, same conditions, 100 mg/kg",13%
"COc1ccc(CCNCC(O)c2ccc(O)c(O)c2)cc1OC (stereo not drawn) [α-(3,4-dimethoxyphenethylaminomethyl)-3,4-dihydroxybenzylalcohol]",activation of adrenergic β1-receptor,adrenergic β1-receptor [2],selective activation of adrenergic β1 -receptor
